Read-outs that look alike come from different tables or passages of the source.
Columns and labels:
[1] = target: T1, amylase derived from the Sulfolobus solfataricus strain KM1 (Saccharolobus solfataricus, UniProt Q55088); assay: biochemical; type: biochemical; conditions: for Activating or inhibitory effect: added with the substrate
T1 construct: endogenous in cells; host or cells: Sulfolobus solfataricus strain KM1 cells
T1 sequence (Q55088 1-559): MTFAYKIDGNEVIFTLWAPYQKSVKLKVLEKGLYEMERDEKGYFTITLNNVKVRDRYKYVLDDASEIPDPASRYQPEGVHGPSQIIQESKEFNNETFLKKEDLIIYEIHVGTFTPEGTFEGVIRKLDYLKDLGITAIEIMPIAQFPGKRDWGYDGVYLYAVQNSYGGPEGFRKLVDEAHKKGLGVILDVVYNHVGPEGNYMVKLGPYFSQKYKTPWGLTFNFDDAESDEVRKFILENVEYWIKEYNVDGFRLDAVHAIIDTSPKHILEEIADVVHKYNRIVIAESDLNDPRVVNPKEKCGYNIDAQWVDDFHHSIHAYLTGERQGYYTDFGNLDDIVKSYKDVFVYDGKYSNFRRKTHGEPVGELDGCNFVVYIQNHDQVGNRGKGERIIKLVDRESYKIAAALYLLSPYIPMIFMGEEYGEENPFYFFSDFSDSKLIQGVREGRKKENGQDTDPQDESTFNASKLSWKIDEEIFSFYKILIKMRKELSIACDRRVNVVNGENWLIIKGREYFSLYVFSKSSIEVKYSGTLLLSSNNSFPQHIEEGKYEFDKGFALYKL

[2] = test system: transferase derived from the Sulfolobus solfataricus strain KM1; assay: Influence of activators and inhibitors on glucosyltrehalose-producing activity; type: biochemical; conditions: for Activating or inhibitory effect: added with the substrate
[3] = test system: debranching enzyme derived from the Sulfolobus solfataricus strain KM1; assay: Influence of activators and inhibitors on debranching enzyme activity; type: biochemical; conditions: for Residual activity: Concentration 5 mM
[4] = target: T2, swine pancreatic α-amylase (Sus scrofa, UniProt P00690); assay: Hydrolysis of oligosaccharides by pancreatic α-amylase (comparative); type: biochemical; conditions: 1 Unit/ml α-amylase, 10 mM substrate, pH 6.9, 20° C.; for Production rate of di- and trisaccharides: 1 Unit = 1 umol per hour
T2 construct: purchased Sigma Co. A-6255
T2 sequence (P00690 16-511): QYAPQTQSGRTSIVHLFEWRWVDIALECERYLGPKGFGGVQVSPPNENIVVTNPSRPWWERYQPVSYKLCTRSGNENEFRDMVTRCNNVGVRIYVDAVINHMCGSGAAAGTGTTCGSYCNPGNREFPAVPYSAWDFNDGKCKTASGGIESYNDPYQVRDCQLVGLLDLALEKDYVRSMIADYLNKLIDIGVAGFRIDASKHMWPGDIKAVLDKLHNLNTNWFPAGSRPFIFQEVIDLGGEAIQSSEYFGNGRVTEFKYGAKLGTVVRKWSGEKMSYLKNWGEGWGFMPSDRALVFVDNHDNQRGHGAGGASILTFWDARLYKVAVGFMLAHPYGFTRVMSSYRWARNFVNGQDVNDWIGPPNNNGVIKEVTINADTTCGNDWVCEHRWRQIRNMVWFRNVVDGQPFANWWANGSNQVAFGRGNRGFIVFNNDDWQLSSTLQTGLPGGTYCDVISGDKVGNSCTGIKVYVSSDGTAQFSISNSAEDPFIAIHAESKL
Protocol: Swine pancreatic α-amylase is known to hydrolyze maltooligosaccharide from the reducing end by two or three sugar units [“Denpun.Kanren Toushitsu Kouso Jikken-hou” (“Experimental methods in enzymes for starch and relating saccharides”), p 135, written by Michinori Nakamura and Keiji Kainuma, published by Gakkai-Shuppan-Sentah]. Upon this, a swine pancreatic α-amylase (manufactured by Sigma Co., A-6255) was analyzed the hydrolyzing properties and the hydrolysates as a comparative example for the novel amylase of the present invention. […] The activity of producing disaccharide and trisaccharide was employed as the index of the enzymatic activity, and the analysis was performed by the TSK-gel Amide-80 HPLC analyzing method described in Example II-1.
Incidentally, the enzymatic activity values in Table 17 were expressed with such a unit as 1 Unit equals the activity of liberating 1 umol of each oligosaccharide per hour.

[5] = target: T1, amylase derived from the Sulfolobus solfataricus strain KM1; assay: Substrate specificity of the purified amylase (hydrolyzing properties, TSK-gel Amide-80 HPLC); type: biochemical; conditions: for Liberated oligosaccharide / Production rate of mono- and disaccharides: 25.0 Units/ml enzyme, 10 mM substrate (amylopectin and soluble starch 2.8%); for Production rate of mono- and disaccharides: 1 Unit = 1 μmol per hour
Protocol: The hydrolyzing properties were analyzed by allowing 25.0 Units/ml (in terms of the enzymatic activity when maltotriosyltrehalose is used as the substrate) of the present purified enzyme to act on the various 10 mM substrates (except amylopectin and soluble starch were used as 2.8% solutions) listed in Table 16 below, and the hydrolyzed products were also analyzed.
Incidentally, each enzymatic activity in Table 16 is expressed with such a unit as 1 Unit equals the activity of liberating 1 μmol of each of the monosaccharide and disaccharide per hour.

[6] = target: T3, recombinant novel amylase (Saccharolobus solfataricus, UniProt Q55088); assay: Substrate specificity of the recombinant novel amylase (crude enzyme solution); conditions: for Liberated oligosaccharide / Production rate of mono- and disaccharides: 35.2 Units/ml crude enzyme solution, 10 mM substrate (amylopectin and soluble starch 3.0%); for Production rate of mono- and disaccharides: 1 Unit = 1 μmol per hour
T3 sequence (Q55088 1-559): T1 sequence (Q55088 1-559)

[7] = Concentration 5 mM, read-out: Residual activity

Q: Which remaining activity at 5000 µM [1, 7] does the source give for O[C@H](CS)[C@H](O)CS (racemic) [Dithiothreitol] here?
A: 116%

Q: What about the Residual activity ([2]; Concentration 5 mM) of the same molecule?
A: 84.5%

Q: And the Residual activity [3]?
A: 106.0%

Q: Which results are given for OCC1OC(OC2OC(CO)C(OC3OC(CO)C(OC4OC(CO)C(OC5OC(CO)C(O)C(O)C5O)C(O)C4O)C(O)C3O)C(O)C2O)C(O)C(O)C1O [Maltotriosyltrehalose, α-D-maltotetraosyl α-D-glucopyranoside]?
A: Liberated oligosaccharide [4]: G2 + Glucosyltrehalose; Production rate of di- and trisaccharides [4]: 0.03 units/ml; Liberated oligosaccharide [5]: G3 + Trehalose; Production rate of mono- and disaccharides [5]: 25.0 units/ml; Liberated oligosaccharide [6]: G3 + Trehalose; Production rate of mono- and disaccharides [6]: 35.21 units/ml

Q: How did the Liberated oligosaccharide [4] turn out when OC[C@H]1O[C@H](O[C@H]2O[C@H](CO)[C@@H](O[C@H]3O[C@H](CO)[C@@H](O[C@H]4O[C@H](CO)[C@@H](O[C@H]5O[C@H](CO)[C@@H](O[C@H]6O[C@H](CO)[C@@H](O[C@H]7O[C@H](CO)[C@@H](O)[C@H](O)[C@H]7O)[C@H](O)[C@H]6O)[C@H](O)[C@H]5O)[C@H](O)[C@H]4O)[C@H](O)[C@H]3O)[C@H](O)[C@H]2O)[C@H](O)[C@@H](O)[C@@H]1O [Maltopentaosyltrehalose] was run?
A: G3 + Maltosyltrehalose

Q: And the “Production rate of di- and trisaccharides” value [4]?
A: 4.36 units/ml

Q: And the Liberated oligosaccharide [5]?
A: G5 + Trehalose

Q: What about the “Production rate of mono- and disaccharides” value [5] of the same molecule?
A: 25.5 units/ml

Q: [Cl-].[Cl-].[Co+2] [CoCl2] was tested. Which Residual activity ([1]; Concentration 5 mM) did it give?
A: 97.1%

Q: What about the Residual activity ([2]; Concentration 5 mM) of the same molecule?
A: 88.5%

Q: What about the Residual activity [3] of the same molecule?
A: 87.2%

Q: For [Cl-].[Cl-].[Mg+2] [MgCl2], which Residual activity ([1]; Concentration 5 mM) is on record?
A: 93.5%

Q: And the Residual activity ([2]; Concentration 5 mM)?
A: 111.3%

Q: And the Residual activity [3]?
A: 82.9%

Q: O=C(O)CN(CCN(CC(=O)O)CC(=O)O)CC(=O)O [EDTA] was tested. Which Residual activity [1] did it give?
A: 106.3%

Q: What about the Residual activity [2] of the same molecule?
A: 96.8%

Q: With OCC1OC(OC2OC(CO)C(OC3OC(CO)C(OC4OC(CO)C(O)C(O)C4O)C(O)C3O)C(O)C2O)C(O)C(O)C1O [Maltosyltrehalose, α-D-maltotriosyl α-D-glucopyranoside] as the molecule, how does the Liberated oligosaccharide [4] read?
A: not decomposed

Q: What about the “Production rate of di- and trisaccharides” value [4] of the same molecule?
A: 0 units/ml

Q: What about the Liberated oligosaccharide [5] of the same molecule?
A: G2 + Trehalose

Q: What about the “Production rate of mono- and disaccharides” value [5] of the same molecule?
A: 3.93 units/ml

Q: And the Liberated oligosaccharide [6]?
A: G2 + Trehalose

Q: What about the “Production rate of mono- and disaccharides” value [6] of the same molecule?
A: 4.52 units/ml

Q: Which results are given for OC[C@H]1O[C@H](O[C@H]2O[C@H](CO)[C@@H](O[C@H]3O[C@H](CO)[C@@H](O[C@H]4O[C@H](CO)[C@@H](O[C@H]5O[C@H](CO)[C@@H](O[C@H]6O[C@H](CO)[C@@H](O)[C@H](O)[C@H]6O)[C@H](O)[C@H]5O)[C@H](O)[C@H]4O)[C@H](O)[C@H]3O)[C@H](O)[C@H]2O)[C@H](O)[C@@H](O)[C@@H]1O [Maltotetraosyltrehalose]?
A: Liberated oligosaccharide [4]: G3 + Glucosyltrehalose; Production rate of di- and trisaccharides [4]: 2.57 units/ml; Liberated oligosaccharide [5]: G4 + Trehalose; Production rate of mono- and disaccharides [5]: 27.3 units/ml

Q: For OC[C@H]1O[C@H](OC[C@H]2OC(O)[C@H](O)[C@@H](O)[C@@H]2O)[C@H](O)[C@@H](O)[C@@H]1O (stereo partly drawn) [Isomaltose], which “Action of the enzyme on the substrate” value [5] is on record?
A: did not act

Q: What about the Liberated oligosaccharide [5] of the same molecule?
A: not decomposed

Q: What about the “Production rate of mono- and disaccharides” value [5] of the same molecule?
A: 0 units/ml

Q: And the “Action of the enzyme on the substrate” value [6]?
A: did not act

Q: What about the Liberated oligosaccharide [6] of the same molecule?
A: not decomposed

Q: And the “Production rate of mono- and disaccharides” value [6]?
A: 0 units/ml

Q: With [Cl][Fe]([Cl])[Cl] [FeCl3] as the molecule, how does the Residual activity ([1]; Concentration 5 mM) read?
A: 38.0%

Q: And the Residual activity ([2]; Concentration 5 mM)?
A: 90.0%

Q: What about the Residual activity [3] of the same molecule?
A: 39.0%

Q: What does the source list for CCCCCCCCCCCCOS(=O)(=O)[O-].[Na+] [SDS, sodium dodecyl sulfate]?
A: remaining activity at 5000 µM [1, 7]: 0%; Activating or inhibitory effect [1]: inhibitory effects; Residual activity ([2]; Concentration 5 mM): 0.0%; Activating or inhibitory effect [2]: inhibitory effects

Q: What does the source list for O=S(=O)([O-])[O-].[Fe+2] [FeSO4]?
A: Residual activity ([1]; Concentration 5 mM): 73.5%; Residual activity ([2]; Concentration 5 mM): 108.3%; Residual activity [3]: 74.1%

Q: [Ca+2].[Cl-].[Cl-] [CaCl2] was tested. Which Residual activity ([1]; Concentration 5 mM) did it give?
A: 97.1%

Q: And the “Activating or inhibitory effect” value [1]?
A: would not be activated

Q: What about the Residual activity ([2]; Concentration 5 mM) of the same molecule?
A: 93.6%

Q: And the “Activating or inhibitory effect” value [2]?
A: would not be activated

Q: And the Residual activity [3]?
A: 105.7%

Q: And the “Activating or inhibitory effect” value ([3]; added with the substrate)?
A: would not be activated

Q: OCC1OC(OC2OC(CO)C(OC3OC(CO)C(O)C(O)C3O)C(O)C2O)C(O)C(O)C1O [Glucosyltrehalose, α-D-maltosyl α-D-glucopyranoside] was tested. Which Liberated oligosaccharide [4] did it give?
A: not decomposed

Q: And the “Production rate of di- and trisaccharides” value [4]?
A: 0 units/ml

Q: And the Liberated oligosaccharide [5]?
A: Glucose + Trehalose

Q: And the “Production rate of mono- and disaccharides” value [5]?
A: 0.04 units/ml

Q: What about the Liberated oligosaccharide [6] of the same molecule?
A: Glucose + Trehalose

Q: And the “Production rate of mono- and disaccharides” value [6]?
A: 0.01 units/ml

Q: What does the source list for OC[C@H]1O[C@H](O[C@H]2O[C@H](CO)[C@@H](O)[C@H](O)[C@H]2O)[C@H](O)[C@@H](O)[C@@H]1O [α,α-Trehalose, α,α-trehalose]?
A: remaining activity at 500 µM ([1]; Concentration 0.5 mM, read-out: Residual activity): 98.2%; Residual activity ([2]; Concentration 0.5 mM): 107.8%; Action of the enzyme on the substrate [5]: did not act; Liberated oligosaccharide [5]: not decomposed; Production rate of mono- and disaccharides [5]: 0 units/ml; Action of the enzyme on the substrate [6]: did not act; Liberated oligosaccharide [6]: not decomposed; Production rate of mono- and disaccharides [6]: 0 units/ml

Q: With O=[N+]([O-])[O-].[Ag+] [AgNO3] as the molecule, how does the Residual activity ([1]; Concentration 5 mM) read?
A: 105.7%

Q: And the Residual activity ([2]; Concentration 5 mM)?
A: 121.0%

Q: How did the Residual activity ([1]; Concentration 5 mM) turn out when OCCS [2-Mercaptoethanol] was run?
A: 141.7%

Q: What about the Residual activity ([2]; Concentration 5 mM) of the same molecule?
A: 100.3%

Q: What about the Residual activity [3] of the same molecule?
A: 104.1%

Q: [Cl][Mn][Cl] [MnCl2] was tested. Which Residual activity ([1]; Concentration 5 mM) did it give?
A: 101.8%

Q: And the Residual activity ([2]; Concentration 5 mM)?
A: 74.2%

Q: And the Residual activity [3]?
A: 91.2%

Reference: US6391595B1, “Transferase and amylase, process for producing the enzymes, use thereof, and gene coding for the same” (Kirin Beer Kabushiki Kaisha, priority 1994, dated 2002)
